# Experimental data taken from PMC2995738, “In Vitro and In Vivo Anti-Inflammatory Activity of 17-O-Acetylacuminolide through the Inhibition of Cytokines, NF-κB Translocation and IKKβ Activity” (PLoS ONE, 2010).
# Molecular target: T1, IKKβ (Homo sapiens, UniProt O14920)
# T1 construct: gene IKBKB; Human, recombinant IKKβ
# T1 sequence (O14920 1-756): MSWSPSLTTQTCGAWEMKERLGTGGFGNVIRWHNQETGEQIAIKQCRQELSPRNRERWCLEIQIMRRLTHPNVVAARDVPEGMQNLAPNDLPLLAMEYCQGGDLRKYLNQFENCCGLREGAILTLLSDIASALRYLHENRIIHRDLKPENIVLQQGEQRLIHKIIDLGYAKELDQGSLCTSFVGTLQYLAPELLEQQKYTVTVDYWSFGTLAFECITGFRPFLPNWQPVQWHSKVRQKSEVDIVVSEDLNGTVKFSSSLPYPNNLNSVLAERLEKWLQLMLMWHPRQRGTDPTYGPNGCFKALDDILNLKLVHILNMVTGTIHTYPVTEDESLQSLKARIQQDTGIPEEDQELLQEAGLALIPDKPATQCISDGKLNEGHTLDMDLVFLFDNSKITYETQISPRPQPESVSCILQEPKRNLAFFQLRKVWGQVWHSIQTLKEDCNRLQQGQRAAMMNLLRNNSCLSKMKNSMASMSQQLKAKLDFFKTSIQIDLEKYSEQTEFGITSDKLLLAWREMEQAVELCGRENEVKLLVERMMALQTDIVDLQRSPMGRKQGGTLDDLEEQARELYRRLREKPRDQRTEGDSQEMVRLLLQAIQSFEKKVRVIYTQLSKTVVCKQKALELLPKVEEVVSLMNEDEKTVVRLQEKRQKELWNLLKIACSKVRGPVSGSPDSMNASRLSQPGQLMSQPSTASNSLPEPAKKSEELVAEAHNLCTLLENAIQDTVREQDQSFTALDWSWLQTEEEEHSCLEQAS
# Experiment: K-LISA IKKβ inhibitor screening kit (ELISA of GST-IκBα phosphorylation by recombinant IKKβ)
# Format: biochemical
smiles,measurement,value
"CC(=O)OC[C@@]12CC[C@H]3C(C)(C)CCC[C@]3(C)[C@H]1C[C@@H](C1=CC(=O)O[C@H]1O)O2 [AA, (12S)-17-acetoxy-8a,12-epoxy-16(R)-hydroxylabd-13(14)Z-en-15,16-olide]",EC50,13.2 µM
